Tested on: 883617-216-R-J1-PDC complex spheroid viability
Assay: Anticancer human tumor 883617-216-R-J1-PDC patient-derived bladder carcinoma cell line growth inhibition
Conditions: for IC50: curve of first compound; for viability, T/C: stronger effect = lower value
How it was run: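 Multicellular complex spheroids of tumor cells with human endothelial cells (HUVEC) and mesenchymal stem cells; the LSD1 inhibitor iadademstat was combined with standard-of-care or investigational agents. Top concentration at or near clinical Cmax, half-log dilutions; final DMSO ≤0.25%.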

[1] = second compound 0.1 µM, first compound 0.0316 µM
[2] = second compound 0.1 µM, first compound 0.1 µM
[3] = second compound 0.316 µM, first compound 0.0316 µM
[4] = second compound 0.316 µM, first compound 0.1 µM
[5] = second compound 1 µM, first compound 0.0316 µM
[6] = second compound 1 µM, first compound 0.1 µM
[7] = second compound 3.16 µM, first compound 0.0316 µM
[8] = second compound 3.16 µM, first compound 0.1 µM
[9] = second compound 10 µM, first compound 0.0316 µM
[10] = second compound 10 µM, first compound 0.1 µM
[11] = second compound 0.1 µM, first compound 0.000949 µM
[12] = second compound 0.1 µM, first compound 0.003 µM
[13] = second compound 0.1 µM, first compound 0.00949 µM
[14] = second compound 0.1 µM, first compound 0.03 µM
[15] = second compound 0.1 µM, first compound 0.0949 µM
[16] = second compound 0.1 µM, first compound 0.3 µM
[17] = second compound 0.316 µM, first compound 0.000949 µM
[18] = second compound 0.316 µM, first compound 0.003 µM
[19] = second compound 0.316 µM, first compound 0.00949 µM
[20] = second compound 0.316 µM, first compound 0.03 µM
[21] = second compound 0.316 µM, first compound 0.0949 µM
[22] = second compound 0.316 µM, first compound 0.3 µM
[23] = second compound 1 µM, first compound 0.000949 µM
[24] = second compound 1 µM, first compound 0.003 µM
[25] = second compound 1 µM, first compound 0.00949 µM
[26] = second compound 1 µM, first compound 0.03 µM
[27] = second compound 1 µM, first compound 0.0949 µM
[28] = second compound 1 µM, first compound 0.3 µM
[29] = second compound 3.16 µM, first compound 0.000949 µM
[30] = second compound 3.16 µM, first compound 0.003 µM
[31] = second compound 3.16 µM, first compound 0.00949 µM
[32] = second compound 3.16 µM, first compound 0.03 µM
[33] = second compound 3.16 µM, first compound 0.0949 µM
[34] = second compound 3.16 µM, first compound 0.3 µM
[35] = second compound 10 µM, first compound 0.000949 µM
[36] = second compound 10 µM, first compound 0.003 µM
[37] = second compound 10 µM, first compound 0.00949 µM
[38] = second compound 10 µM, first compound 0.03 µM
[39] = second compound 10 µM, first compound 0.0949 µM
[40] = second compound 10 µM, first compound 0.3 µM
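Also: exposure lasted seven days after three days of spheroid growth.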
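For viability, T/C in this document: 100% = DMSO vehicle control luminescence.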

CC[C@@]1(O)C(=O)OCc2c1cc1n(c2=O)Cc2cc3c(CN(C)C)c(O)ccc3nc2-1 + NC1CCC(NC2CC2c2ccccc2)CC1
IC50 (second compound 0.1 µM): 4.71 nM | IC50 (second compound 0.316 µM): 5.7 nM | IC50 (second compound 1 µM): 6.31 nM | IC50 (second compound 3.16 µM): 6.47 nM | IC50 (second compound 10 µM): 7.25 nM | viability, T/C (second compound 0.1 µM, first compound 0.000316 µM): 94.9% | viability, T/C (second compound 0.1 µM, first compound 0.001 µM): 85.8% | viability, T/C (second compound 0.1 µM, first compound 0.00316 µM): 55.2% | viability, T/C (second compound 0.1 µM, first compound 0.01 µM): 38.9% | viability, T/C [1]: 33.8% | viability, T/C [2]: 28.5% | viability, T/C (second compound 0.316 µM, first compound 0.000316 µM): 103% | viability, T/C (second compound 0.316 µM, first compound 0.001 µM): 104% | viability, T/C (second compound 0.316 µM, first compound 0.00316 µM): 62.5% | viability, T/C (second compound 0.316 µM, first compound 0.01 µM): 42.6% | viability, T/C [3]: 30.9% | viability, T/C [4]: 32.4% | viability, T/C (second compound 1 µM, first compound 0.000316 µM): 93.7% | viability, T/C (second compound 1 µM, first compound 0.001 µM): 87.2% | viability, T/C (second compound 1 µM, first compound 0.00316 µM): 57.4% | viability, T/C (second compound 1 µM, first compound 0.01 µM): 44.2% | viability, T/C [5]: 36.2% | viability, T/C [6]: 26.9% | viability, T/C (second compound 3.16 µM, first compound 0.000316 µM): 95.8% | viability, T/C (second compound 3.16 µM, first compound 0.001 µM): 86.1% | viability, T/C (second compound 3.16 µM, first compound 0.00316 µM): 61.3% | viability, T/C (second compound 3.16 µM, first compound 0.01 µM): 42.5% | viability, T/C [7]: 35.4% | viability, T/C [8]: 28.8% | viability, T/C (second compound 10 µM, first compound 0.000316 µM): 99.3% | viability, T/C (second compound 10 µM, first compound 0.001 µM): 98.2% | viability, T/C (second compound 10 µM, first compound 0.00316 µM): 74.7% | viability, T/C (second compound 10 µM, first compound 0.01 µM): 40% | viability, T/C [9]: 36.7% | viability, T/C [10]: 28.6%

CCc1c2c(nc3ccc(O)cc13)-c1cc3c(c(=O)n1C2)COC(=O)[C@]3(O)CC + NC1CCC(NC2CC2c2ccccc2)CC1
IC50 (second compound 0.1 µM): < 0.949 nM | IC50 (second compound 0.316 µM): < 0.949 nM | IC50 (second compound 1 µM): < 0.949 nM | IC50 (second compound 3.16 µM): < 0.949 nM | IC50 (second compound 10 µM): < 0.949 nM | viability, T/C [11]: 34.6% | viability, T/C [12]: 27.8% | viability, T/C [13]: 24.9% | viability, T/C [14]: 24.2% | viability, T/C [15]: 5.01% | viability, T/C [16]: 2.12% | viability, T/C [17]: 35.5% | viability, T/C [18]: 28.4% | viability, T/C [19]: 25% | viability, T/C [20]: 22.8% | viability, T/C [21]: 3.48% | viability, T/C [22]: 0.41% | viability, T/C [23]: 36.2% | viability, T/C [24]: 24.4% | viability, T/C [25]: 26.4% | viability, T/C [26]: 23.7% | viability, T/C [27]: 4.59% | viability, T/C [28]: 0.62% | viability, T/C [29]: 31.6% | viability, T/C [30]: 25.7% | viability, T/C [31]: 26.7% | viability, T/C [32]: 23.6% | viability, T/C [33]: 5.29% | viability, T/C [34]: 1.43% | viability, T/C [35]: 30.6% | viability, T/C [36]: 25.7% | viability, T/C [37]: 25.2% | viability, T/C [38]: 25.6% | viability, T/C [39]: 3.82% | viability, T/C [40]: 0.29%

Nc1ccccc1NC(=O)c1ccc(CNC(=O)OCc2cccnc2)cc1 + NC1CCC(NC2CC2c2ccccc2)CC1
IC50 (second compound 0.1 µM): 206 nM | IC50 (second compound 0.316 µM): 205 nM | IC50 (second compound 1 µM): 233 nM | IC50 (second compound 3.16 µM): 216 nM | IC50 (second compound 10 µM): 235 nM | viability, T/C [13]: 115% | viability, T/C [14]: 89.3% | viability, T/C [15]: 73.5% | viability, T/C [16]: 39.5% | viability, T/C (second compound 0.1 µM, first compound 0.949 µM): 15.8% | viability, T/C (second compound 0.1 µM, first compound 3 µM): 0.37% | viability, T/C [19]: 112% | viability, T/C [20]: 96.2% | viability, T/C [21]: 74.1% | viability, T/C [22]: 36.5% | viability, T/C (second compound 0.316 µM, first compound 0.949 µM): 16.6% | viability, T/C (second compound 0.316 µM, first compound 3 µM): 0.73% | viability, T/C [25]: 104% | viability, T/C [26]: 90.2% | viability, T/C [27]: 76.5% | viability, T/C [28]: 41.4% | viability, T/C (second compound 1 µM, first compound 0.949 µM): 17.5% | viability, T/C (second compound 1 µM, first compound 3 µM): 1.37% | viability, T/C [31]: 102% | viability, T/C [32]: 103% | viability, T/C [33]: 66.6% | viability, T/C [34]: 40.4% | viability, T/C (second compound 3.16 µM, first compound 0.949 µM): 21.5% | viability, T/C (second compound 3.16 µM, first compound 3 µM): 1.18% | viability, T/C [37]: 106% | viability, T/C [38]: 88% | viability, T/C [39]: 66.5% | viability, T/C [40]: 45.9% | viability, T/C (second compound 10 µM, first compound 0.949 µM): 23.6% | viability, T/C (second compound 10 µM, first compound 3 µM): 0.93%

Nc1ccn(C2OC(CO)C(O)C2(F)F)c(=O)n1 (stereo not given) + NC1CCC(NC2CC2c2ccccc2)CC1
IC50 (second compound 0.1 µM): < 0.949 nM | IC50 (second compound 0.316 µM): < 0.949 nM | IC50 (second compound 1 µM): < 0.949 nM | IC50 (second compound 3.16 µM): < 0.949 nM | IC50 (second compound 10 µM): < 0.949 nM | viability, T/C [11]: 28.7% | viability, T/C [12]: 20.4% | viability, T/C [13]: 24.2% | viability, T/C [14]: 26.4% | viability, T/C [15]: 25.9% | viability, T/C [16]: 18.2% | viability, T/C [17]: 24.9% | viability, T/C [18]: 17.3% | viability, T/C [19]: 23.6% | viability, T/C [20]: 22.4% | viability, T/C [21]: 23.4% | viability, T/C [22]: 23.6% | viability, T/C [23]: 28.2% | viability, T/C [24]: 19.7% | viability, T/C [25]: 24.1% | viability, T/C [26]: 22.6% | viability, T/C [27]: 22% | viability, T/C [28]: 21.7% | viability, T/C [29]: 24.7% | viability, T/C [30]: 21.7% | viability, T/C [31]: 22.3% | viability, T/C [32]: 21.6% | viability, T/C [33]: 22.7% | viability, T/C [34]: 19.2% | viability, T/C [35]: 30.5% | viability, T/C [36]: 20.6% | viability, T/C [37]: 26.9% | viability, T/C [38]: 23.6% | viability, T/C [39]: 23% | viability, T/C [40]: 19.2%

O=C(c1cc(Cc2n[nH]c(=O)c3ccccc23)ccc1F)N1CCN(C(=O)C2CC2)CC1 + NC1CCC(NC2CC2c2ccccc2)CC1
IC50 (second compound 0.1 µM): 2730 nM | IC50 (second compound 0.316 µM): 8240 nM | IC50 (second compound 1 µM): 3580 nM | IC50 (second compound 3.16 µM): 3790 nM | IC50 (second compound 10 µM): 8940 nM | viability, T/C [1]: 100% | viability, T/C [2]: 93% | viability, T/C (second compound 0.1 µM, first compound 0.316 µM): 93.3% | viability, T/C (second compound 0.1 µM, first compound 1 µM): 65.5% | viability, T/C (second compound 0.1 µM, first compound 3.16 µM): 49% | viability, T/C (second compound 0.1 µM, first compound 10 µM): 44.4% | viability, T/C [3]: 107% | viability, T/C [4]: 102% | viability, T/C (second compound 0.316 µM, first compound 0.316 µM): 99.7% | viability, T/C (second compound 0.316 µM, first compound 1 µM): 76.2% | viability, T/C (second compound 0.316 µM, first compound 3.16 µM): 60.1% | viability, T/C (second compound 0.316 µM, first compound 10 µM): 47.5% | viability, T/C [5]: 90.8% | viability, T/C [6]: 89.9% | viability, T/C (second compound 1 µM, first compound 0.316 µM): 90% | viability, T/C (second compound 1 µM, first compound 1 µM): 76.1% | viability, T/C (second compound 1 µM, first compound 3.16 µM): 50.8% | viability, T/C (second compound 1 µM, first compound 10 µM): 44.5% | viability, T/C [7]: 94.1% | viability, T/C [8]: 98.5% | viability, T/C (second compound 3.16 µM, first compound 0.316 µM): 88.6% | viability, T/C (second compound 3.16 µM, first compound 1 µM): 73.3% | viability, T/C (second compound 3.16 µM, first compound 3.16 µM): 51.3% | viability, T/C (second compound 3.16 µM, first compound 10 µM): 42.5% | viability, T/C [9]: 104% | viability, T/C [10]: 96.3% | viability, T/C (second compound 10 µM, first compound 0.316 µM): 89.7% | viability, T/C (second compound 10 µM, first compound 1 µM): 75.7% | viability, T/C (second compound 10 µM, first compound 3.16 µM): 58.1% | viability, T/C (second compound 10 µM, first compound 10 µM): 49.5%

— PubChem BioAssay AID1918945 (Molecular Pharmacology Branch, DTP, NCI, 2023)
